Experimental data reported in patent publication US12479843B2, “Spiro ring-containing quinazoline compounds” (WIGEN BIOMEDICINE TECHNOLOGY (SHANGHAI) CO., LTD., priority 2019, dated 2025).
Like-named read-outs stand apart in the source and are kept apart here.

How the values were obtained:
pERK level in H358 cells = assay: pERK and ERK protein content assay in H358 cells (ELISA); type: cell-based; conditions: 24 h, pERK/ERK ratio compared with DMSO group; for inhibition at 1 µM: Homo sapiens, NCI-H358, compound 1 μM, read-out: Inhibition rate (%) of pERK level; for Inhibition rate (%) of pERK level: compound 1 μM
How it was run: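 H358 cells grown one day, then treated 24 h with compound at 1 μM. pERK and ERK in lysates measured by ELISA; pERK/ERK ratio expressed as percent inhibition versus DMSO.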

H358 cells = assay: Antiproliferative activity against H358 cells (Cell Titer Glow, ultra-low attachment plate); type: cell-based; conditions: three days after addition of compound
Procedure: 2500 H358 cells were seeded in a 96-well ultra-low attachment plate (corning, 7007). After one day of growth, a serially diluted compound (a maximum concentration of 5 μM, 5-fold dilution, a total of five doses) was added. Three days after the addition of the compound, Cell Titer Glow (Promega, G9681) was added to evaluate pellet growth, and the IC50 value was calculated.

[1] = Pharmacokinetic evaluation in mice; type: in vivo, male ICR mice; conditions: for Vd: read-out: Vss; for F: po 10 mg/kg vs iv 2 mg/kg
Procedure: The compounds were administered by intravenous injection at a dose of 2 mg/kg and oral gavage at a dose of 10 mg/kg (0.5% CMC-Na suspension). 15 male ICR mice were selected for each group, and each mouse was subjected to blood collection at 3 discrete time points, with 3 mice per time point. The time points of sampling were as follows: before the administration, and at 5 min, 15 min, 30 min, 1 h, 3 h, 5 h, 8 h, 12 h and 24 h after the administration. 80 μL of blood was collected from the eye sockets or the hearts of the mice at each of the time points after the administration. All whole blood samples were collected in tubes containing EDTA K2 and centrifuged (1500-1600 rmp) at 4° C. for 10 min to isolate plasma, which was then stored in a refrigerator at −90 to −60° C. for sample analysis. The compound concentration in the plasma was determined by liquid chromatography-tandem mass spectrometry, and the corresponding pharmacokinetic parameters were obtained according to a plasma concentration-time curve.

[2] = tested on: Human pancreatic cancer Mia PaCa-2 cells; assay: Antitumor activity on graft tumors of human pancreatic cancer Mia PaCa-2 in nude mice; type: in vivo; conditions: Mia PaCa-2 graft tumors in nude mice, 10 mg/kg intragastric, qd*21
Procedure: Human pancreatic cancer Mia PaCa-2 cells were cultured conventionally in 1640 medium containing 10% fetal bovine serum in a 37° C./5% CO2 incubator. After passage, the cells were collected when they reached the desired amount. 1×10^7 Mia PaCa-2 cells were injected into the left dorsal side of each nude mouse, and the animals were randomly grouped for administration after tumors grew to 150 mm3. The groups are as follows: 1) a solvent control group of 8 mice; and 2) compound 1 group, compound 2 group, compound 5 group, compound 31 group, compound 131 group, compound 142 group, compound 171 group, compound B group and compound C group, with 8 mice per group. Mice in the solvent control group were subjected to intragastric administration of 0.5% CMC-Na once daily; mice in compound 1 group, compound 2 group, compound 5 group, compound 31 group, compound 131 group, compound 142 group, compound 171 group, compound B group and compound C group were subjected to intragastric administration of a suspension of a compound in 0.5% CMC-Na once daily. On Tuesday and Thursday each week, tumor volumes and body weight of the mice were measured, and the nude mice were sacrificed on day 21 of administration.

[3] = Homo sapiens, NCI-H358, 72 h, 96-well ultra-low attachment plate, Cell Titer Glow
[4] = male, ICR, mouse, plasma, iv, 2 mg/kg
[5] = male, ICR, mouse, plasma, iv, 2 mg/kg, read-out: Cmax
[6] = male, ICR, mouse, plasma, iv, 2 mg/kg, read-out: Tmax
[7] = male, ICR, mouse, plasma, po, 10 mg/kg, 0.5% CMC-Na suspension
[8] = male, ICR, mouse, plasma, po, 10 mg/kg, 0.5% CMC-Na suspension, read-out: Cmax
[9] = male, ICR, mouse, plasma, po, 10 mg/kg, 0.5% CMC-Na suspension, read-out: Tmax
[10] = 96-well ultra-low attachment plate, Cell Titer Glow
[11] = po, 10 mg/kg, 0.5% CMC-Na suspension

C=CC(=O)N1CC2(CCN(c3nc(OC4CCN(CCOC)CC4)nc4c(OCC(F)(F)F)c(-c5c(C)ccc6[nH]ncc56)c(C5CC5)cc34)CC2)C1 [B, reference compound]
inhibition at 1 µM (pERK level in H358 cells): > 90%
IC50 (H358 cells; [3]): < 300 nM
IC50 (H358 cells; Homo sapiens, NCI-H358, 72 h): 4.6 nM
AUC(0-t) [1, 4]: 7820 ng·h/mL
clearance [1, 4]: 4.2 mL/min/kg
half-life [1, 4]: 4.47 h
Cmax [1, 5]: 2880 ng/mL
Tmax [1, 6]: 0.083 h
Vd [1, 4]: 1.01 L/kg
AUC(0-t) [1, 7]: 10300 ng·h/mL
half-life [1, 7]: 3.74 h
Cmax [1, 8]: 1300 ng/mL
Tmax [1, 9]: 2 h
F [1]: 26.5%
Anti-tumor effect (regression) [2]: 25% regression

C=C(F)C(=O)N1CC2(CCN(c3nc(OC4CCN(CCOC)CC4)nc4c(OCC(F)(F)F)c(-c5c(C)ccc6[nH]ncc56)c(C5CC5)cc34)CC2)C1 [Compound 1]
Inhibition rate (%) of pERK level (pERK level in H358 cells): +++ (+++ indicates an inhibition rate greater than 90%.)
IC50 (H358 cells; [10]): < 300 nM
Cl ([1]; iv, 2 mg/kg): 2.33 mL/min/kg
Cmax ([1]; iv, 2 mg/kg): 2557 ng/mL
Tmax ([1]; iv, 2 mg/kg): 1 h
Vss ([1]; iv, 2 mg/kg): 0.782 L/kg
t1/2 ([1]; iv, 2 mg/kg): 4.31 h
F [1]: 29.0%
Cmax [1, 11]: 1543 ng/mL
Tmax [1, 11]: 4 h
t1/2 [1, 11]: 6.94 h
Anti-tumor effect (regression) [2]: 39% regression

C=C(F)C(=O)N1CC2(CCN(c3nc(OC4CCN(CCOC)CC4)nc4c(OCC)c(-c5c(C)ccc6[nH]ncc56)c(C5CC5)cc34)CC2)C1 [Compound 2]
inhibition at 1 µM (pERK level in H358 cells): > 90%
IC50 (H358 cells; [3]): < 300 nM
Anti-tumor effect (regression) [2]: 23% regression

C=Cc1cc2c(N3CCC4(CC3)CN(C(=O)C(=C)F)C4)nc(OC3CCN(CCOC)CC3)nc2c(OCC(F)(F)F)c1-c1c(C)ccc2[nH]ncc12 [Compound 5]
inhibition at 1 µM (pERK level in H358 cells): > 90%
IC50 (H358 cells; [3]): < 300 nM
Anti-tumor effect (regression) [2]: 30% regression

C=CC(=O)N1CC2(CCN(c3nc(OC4CC5(CCN(CCOC)CC5)C4)nc4c(OCC(F)(F)F)c(-c5c(C)ccc6[nH]ncc56)c(C5CC5)cc34)CC2)C1 [Compound 131]
inhibition at 1 µM (pERK level in H358 cells): > 90%
IC50 (H358 cells; [3]): < 300 nM
IC50 (H358 cells; Homo sapiens, NCI-H358, 72 h): 1.5 nM
AUC(0-t) [1, 4]: 11300 ng·h/mL
clearance [1, 4]: 1.87 mL/min/kg
half-life [1, 4]: 4.12 h
Cmax [1, 5]: 2350 ng/mL
Tmax [1, 6]: 0.5 h
Vd [1, 4]: 2.1 L/kg
AUC(0-t) [1, 7]: 22300 ng·h/mL
half-life [1, 7]: 5.86 h
Cmax [1, 8]: 1820 ng/mL
Tmax [1, 9]: 2 h
F [1]: 39.4%
Anti-tumor effect (regression) [2]: 37% regression

C=CC(=O)N1CC2(CCN(c3nc(N4CC(N5CCCC5)C4)nc4c(OCC(F)(F)F)c(-c5c(C)ccc6[nH]ncc56)c(C5CC5)cc34)CC2)C1 [Compound 171]
inhibition at 1 µM (pERK level in H358 cells): > 90%
IC50 (H358 cells; [3]): < 300 nM
IC50 (H358 cells; Homo sapiens, NCI-H358, 72 h): 1.4 nM
AUC(0-t) [1, 4]: 26500 ng·h/mL
clearance [1, 4]: 1.26 mL/min/kg
half-life [1, 4]: 4.85 h
Cmax [1, 5]: 4910 ng/mL
Tmax [1, 6]: 0.083 h
Vd [1, 4]: 0.505 L/kg
AUC(0-t) [1, 7]: 35700 ng·h/mL
half-life [1, 7]: 3.93 h
Cmax [1, 8]: 3320 ng/mL
Tmax [1, 9]: 2 h
F [1]: 26.9%
Anti-tumor effect (regression) [2]: 38% regression

C=CC(=O)N1CC2(CCN(c3nc(N4CC(N5CC[C@H](C)C5)C4)nc4c(OCC)c(-c5c(C)ccc6[nH]ncc56)c(C5CC5)cc34)CC2)C1 [Compound 330]
inhibition at 1 µM (pERK level in H358 cells): > 90%
IC50 (H358 cells; [3]): < 300 nM

C=CC(=O)N1CC2(CCN(c3nc(N4CC(N5CC[C@@H](C)C5)C4)nc4c(OCC)c(-c5c(C)ccc6[nH]ncc56)c(C5CC5)cc34)CC2)C1 [Compound 331]
inhibition at 1 µM (pERK level in H358 cells): > 90%
IC50 (H358 cells; [3]): < 300 nM

C=CC(=O)N1CC2(CCN(c3nc(N4CC(N5C6CCC5CC6)C4)nc4c(OCC)c(-c5c(C)ccc6[nH]ncc56)c(C5CC5)cc34)CC2)C1 [Compound 332]
inhibition at 1 µM (pERK level in H358 cells): > 90%
IC50 (H358 cells; [3]): < 300 nM

C=CC(=O)N1CC2(CCN(c3nc(N4CC(N5CC[C@H](C)C5)C4)nc4c(OCC(F)F)c(-c5c(C)ccc6[nH]ncc56)c(C5CC5)cc34)CC2)C1 [Compound 333]
inhibition at 1 µM (pERK level in H358 cells): > 90%
IC50 (H358 cells; [3]): < 300 nM

C=CC(=O)N1CC2(CCN(c3nc(N4CC(N5CC[C@@H](C)C5)C4)nc4c(OCC(F)F)c(-c5c(C)ccc6[nH]ncc56)c(C5CC5)cc34)CC2)C1 [Compound 334]
inhibition at 1 µM (pERK level in H358 cells): > 90%
IC50 (H358 cells; [3]): < 300 nM

C=CC(=O)N1CC2(CCN(c3nc(N4CC(N5C6CCC5CC6)C4)nc4c(OCC(F)F)c(-c5c(C)ccc6[nH]ncc56)c(C5CC5)cc34)CC2)C1 [Compound 335]
inhibition at 1 µM (pERK level in H358 cells): > 90%
IC50 (H358 cells; [3]): < 300 nM

C=CC(=O)N1CC2(CCN(c3nc(N4CC(N5CCC5)C4)nc4c(OCC(F)(F)F)c(-c5c(C)ccc6[nH]ncc56)c(C=C)cc34)CC2)C1 [Compound 336]
inhibition at 1 µM (pERK level in H358 cells): > 90%
IC50 (H358 cells; [3]): < 300 nM

C=CC(=O)N1CC2(CCN(c3nc(N4CC(N5CCCC5)C4)nc4c(OCC(F)(F)F)c(-c5c(C)ccc6[nH]ncc56)c(C=C)cc34)CC2)C1 [Compound 337]
inhibition at 1 µM (pERK level in H358 cells): > 90%
IC50 (H358 cells; [3]): < 300 nM

C=CC(=O)N1CC2(CCN(c3nc(N4CC5(CCN(CCOC)CC5)C4)nc4c(OCC(F)(F)F)c(-c5c(C)ccc6[nH]ncc56)c(C=C)cc34)CC2)C1 [Compound 338]
inhibition at 1 µM (pERK level in H358 cells): > 90%
IC50 (H358 cells; [3]): < 300 nM

C=CC(=O)N1CC2(CCN(c3nc(N4CC(N5CC[C@H](C)C5)C4)nc4c(OCC(F)(F)F)c(-c5c(C)ccc6[nH]ncc56)c(C=C)cc34)CC2)C1 [Compound 339]
inhibition at 1 µM (pERK level in H358 cells): > 90%
IC50 (H358 cells; [3]): < 300 nM

C=CC(=O)N1CC2(CCN(c3nc(N4CC(N5C6CCC5CC6)C4)nc4c(OCC(F)(F)F)c(-c5c(C)ccc6[nH]ncc56)c(C=C)cc34)CC2)C1 [Compound 341]
inhibition at 1 µM (pERK level in H358 cells): > 90%
IC50 (H358 cells; [3]): < 300 nM

C=CC(=O)N1CC2(CCN(c3nc(N4CC(N(C)C)C4)nc4c(OCC(F)(F)F)c(-c5c(C)ccc6[nH]ncc56)c(C=C)cc34)CC2)C1 [Compound C, reference compound]
Inhibition rate (%) of pERK level (pERK level in H358 cells): +++ (+++ indicates an inhibition rate greater than 90%.)
IC50 (H358 cells; [10]): < 300 nM
IC50 (H358 cells): 5.1 nM
Cl ([1]; iv, 2 mg/kg): 1.65 mL/min/kg
Cmax ([1]; iv, 2 mg/kg): 3210 ng/mL
Tmax ([1]; iv, 2 mg/kg): 0.083 h
Vss ([1]; iv, 2 mg/kg): 0.481 L/kg
t1/2 ([1]; iv, 2 mg/kg): 4.02 h
F [1]: 24.6%
Cmax [1, 11]: 3110 ng/mL
Tmax [1, 11]: 0.5 h
t1/2 [1, 11]: 3.38 h
Anti-tumor effect (regression) [2]: 8% regression
